“Also recorded” adds a separate entry of the source.
System: male Wistar rats
Test: In vivo blood glucose elevation after s.c. injection
Set-up: species or system rat
Description: Rats were catheterized to enable collection of blood samples at various time points. The total blood glucose level was measured by withdrawing blood at regular intervals (5-120 min) and tested using [sequence] LITE (glucose test meters, Abbott, Chicago, Ill.).

**Q.** For phospho-Ser16-glucagon, which “Maximum elevation in blood glucose” value (2.8 nmol/kg s.c.) is on record?
**A.** ~10 mg/dL

**Q.** What about the “Blood glucose elevation compared with native glucagon” value (7.1 nmol/kg s.c.) of the same substance?
**A.** activity comparable to that of native glucagon

**Q.** What about the “Maximum increase in blood glucose” value (7.1 nmol/kg s.c.) of the same substance?
**A.** ~50 mg/dL

**Q.** And the “Time of peak blood glucose” value (7.1 nmol/kg s.c.)?
**A.** 20 min

**Q.** How did the “Blood glucose elevation compared with native glucagon” value (7.1 nmol/kg s.c.) turn out when phospho-Thr7-glucagon was run?
**A.** slower response and a somewhat lower blood glucose peak; also recorded: somewhat slower increase

**Q.** Which “Blood glucose elevation compared with native glucagon” value (7.1 nmol/kg s.c.) does the source give for phospho-Tyr13-glucagon here?
**A.** response similar to that of phospho-Thr5-glucagon and phospho-Ser16-glucagon; also recorded: comparable to native glucagon

From patent US11472857B2 (Purdue Research Foundation, priority 2015, dated 2022)
